Measurements taken from US10293148B2, “System, retainer and method of preventing and treating nosocomial infections including methicillin-resistant Staphylococcus aureus infections” (priority 2017, dated 2019).

Test system: S. epidermidis ATCC 12228
Assay: ASTM E1153 sanitizer test on inoculated glass carriers
Format: cell-based, staphylococcus epidermidis
Description: As used herein, “CFU” refers to “colony forming unit;” the term “Log Reduction” means Log(B/A), where B=the colony form unit (CFU) number of viable test microorganisms on the control carriers after the contact time and A=the colony form unit (CFU) number of viable test microorganisms on the test carriers after the contact time. All log numbers are base-10 logarithms. […] The experiment was conducted pursuant to the American Society for Testing and Materials (ASTM) E1153, a quantitative test method designed to substantiate sanitizer claims for disinfectants on inanimate, non-porous, non-food contact surfaces. […] The commercial acne products were categorized based on their identified disinfecting ingredient. The representative test microorganism used to conduct the study was staphylococcus epidermidis (“S. epidermidis”). S. epidermidis is a gram-positive, cocci-shaped, facultative anaerobe, living mainly on the skin's surface and mucosa. S. epidermidis is one of the most common organisms contributing to nosocomial infections due to the increase in medical usage of biomaterials. Specifically, S. epidermidis infections are associated with intravascular devices (prosthetic heart valves, shunts, etc.), prosthetic joints, catheters, and postoperative wounds and the urinary tract. […] The ASTM […] protocol includes growing the test microorganism in a liquid culture medium. A series of hard, non-porous glass slides (“carriers”) are inoculated with the representative test microorganisms, and subsequently dried in an incubator. ASTM […] utilizes non-antimicrobial agents as controls to establish baselines for microbial reductions. For this study, each inoculation area was kept to a 10 mm circle to match the output tip of the […] light source. Once completely dried, the inoculated test carriers were treated with the test substances and incubated for the predetermined contact time. […] Each […] light source was set to the high power setting for testing. Control carriers were treated with a buffered saline solution and allowed to sit for the predetermined contact time. At the conclusion of the contact time, treated carriers were transferred to vessels containing neutralizing media. Dilutions of the neutralized test substance were assayed for microbial survivors using appropriate growth media. To determine microbial reduction, the effect of the test substance is compared to the effect of the control substance. […] The percent reduction is determined by evaluating the number of microorganisms on the control carriers after the contact time with the number of viable microorganisms on the test carriers after contact time.

[1] = stand-alone, no light, contact time 10 Seconds, Initial Numbers 1.4E+05
[2] = stand-alone, no light, contact time 20 Seconds, Initial Numbers 1.4E+05
[3] = stand-alone, no light, contact time 30 Seconds, Initial Numbers 1.4E+05
[4] = with Synederm Light (385-515 nm), contact time 10 Seconds, Numbers Control 2.97E+05
[5] = with Synederm Light (385-515 nm), contact time 30 Seconds, Numbers Control 2.97E+05
[6] = with Synederm Light (385-515 nm), contact time 60 Seconds, Numbers Control 2.97E+05
[7] = with Synederm Light (420-480 nm), contact time 10 Seconds, Numbers Control 2.97E+05
[8] = with Synederm Light (420-480 nm), contact time 30 Seconds, Numbers Control 2.97E+05
[9] = with Synederm Light (420-480 nm), contact time 60 Seconds, Numbers Control 2.97E+05
[10] = with Synederm Light (385-515 nm), contact time 10 Seconds, Numbers Control 2.97E+05, listed as 3.0% Hydrogen Peroxide
[11] = with Synederm Light (385-515 nm), contact time 30 Seconds, Numbers Control 2.97E+05, listed as 3.0% Hydrogen Peroxide
[12] = with Synederm Light (385-515 nm), contact time 60 Seconds, Numbers Control 2.97E+05, listed as 3.0% Hydrogen Peroxide
[13] = with Synederm Light (420-480 nm), contact time 10 Seconds, Numbers Control 2.97E+05, listed as 3.0% Hydrogen Peroxide
[14] = with Synederm Light (420-480 nm), contact time 30 Seconds, Numbers Control 2.97E+05, listed as 3.0% Hydrogen Peroxide
[15] = with Synederm Light (420-480 nm), contact time 60 Seconds, Numbers Control 2.97E+05, listed as 3.0% Hydrogen Peroxide

Question: With OO [0.3% Hydrogen Peroxide, hydrogen peroxide] as the molecule, how does the CFU/Carrier [1] read?
Answer: 8.3E+04 CFU/Carrier

Question: What about the “Log10 Reduction Compared to Control” value [1] of the same molecule?
Answer: 0.23 Log10

Question: And the “Percent Reduction Compared to Control” value [1]?
Answer: 40.7%

Question: And the CFU/Carrier [2]?
Answer: 7.50E+04 CFU/Carrier

Question: What about the “Log10 Reduction Compared to Control” value [2] of the same molecule?
Answer: 0.27 Log10

Question: What about the “Percent Reduction Compared to Control” value [2] of the same molecule?
Answer: 46.4%

Question: And the CFU/Carrier [3]?
Answer: 1.20E+05 CFU/Carrier

Question: What about the “Log10 Reduction Compared to Control” value [3] of the same molecule?
Answer: 0.07 Log10

Question: What about the “Percent Reduction Compared to Control” value [3] of the same molecule?
Answer: 14.3%

Question: And the CFU/Carrier [4]?
Answer: 7.58E+4 CFU/Carrier

Question: What about the “Log10 Reduction Compared to Control” value [4] of the same molecule?
Answer: 0.59 Log10

Question: And the “Percent Reduction Compared to Control” value [4]?
Answer: 74.4%

Question: And the CFU/Carrier [5]?
Answer: 3.66E+04 CFU/Carrier

Question: What about the “Log10 Reduction Compared to Control” value [5] of the same molecule?
Answer: 0.91 Log10

Question: What about the “Percent Reduction Compared to Control” value [5] of the same molecule?
Answer: 87.7%

Question: What about the CFU/Carrier [6] of the same molecule?
Answer: 9.10E+03 CFU/Carrier

Question: And the “Log10 Reduction Compared to Control” value [6]?
Answer: 1.51 Log10

Question: What about the “Percent Reduction Compared to Control” value [6] of the same molecule?
Answer: 96.9%

Question: And the CFU/Carrier [7]?
Answer: 1.30E+05 CFU/Carrier

Question: And the “Log10 Reduction Compared to Control” value [7]?
Answer: 0.36 Log10

Question: And the “Percent Reduction Compared to Control” value [7]?
Answer: 56.2%

Question: What about the CFU/Carrier [8] of the same molecule?
Answer: 1.30E+05 CFU/Carrier

Question: What about the “Log10 Reduction Compared to Control” value [8] of the same molecule?
Answer: 0.36 Log10

Question: And the “Percent Reduction Compared to Control” value [8]?
Answer: 56.3%

Question: What about the CFU/Carrier [9] of the same molecule?
Answer: 2.28E+04 CFU/Carrier

Question: And the “Log10 Reduction Compared to Control” value [9]?
Answer: 1.11 Log10

Question: What about the “Percent Reduction Compared to Control” value [9] of the same molecule?
Answer: 92.3%

Question: Which results are given for OO [3% Hydrogen Peroxide, hydrogen peroxide]?
Answer: CFU/Carrier [1]: 7.50E+04 CFU/Carrier; Log10 Reduction Compared to Control [1]: 0.27 Log10; Percent Reduction Compared to Control [1]: 46.4%; CFU/Carrier [2]: 8.00E+04 CFU/Carrier; Log10 Reduction Compared to Control [2]: 0.24 Log10; Percent Reduction Compared to Control [2]: 42.9%; CFU/Carrier [3]: 6.30E+04 CFU/Carrier; Log10 Reduction Compared to Control [3]: 0.35 Log10; Percent Reduction Compared to Control [3]: 55%; CFU/Carrier [10]: 5.80E+04 CFU/Carrier; Log10 Reduction Compared to Control [10]: 0.71 Log10; Percent Reduction Compared to Control [10]: 80.4%; CFU/Carrier [11]: 1.34E+03 CFU/Carrier; Log10 Reduction Compared to Control [11]: 2.34 Log10; Percent Reduction Compared to Control [11]: 99.5%; CFU/Carrier [12]: <1.00E+01 CFU/Carrier; Log10 Reduction Compared to Control [12]: >4.55 Log10; Percent Reduction Compared to Control [12]: >99.997%; CFU/Carrier [13]: 2.19E+04 CFU/Carrier; Log10 Reduction Compared to Control [13]: 1.13 Log10; Percent Reduction Compared to Control [13]: 92.6%; CFU/Carrier [14]: 6.20E+03 CFU/Carrier; Log10 Reduction Compared to Control [14]: 1.68 Log10; Percent Reduction Compared to Control [14]: 97.9%; CFU/Carrier [15]: <1.00E+01 CFU/Carrier; Log10 Reduction Compared to Control [15]: >4.55 Log10; Percent Reduction Compared to Control [15]: >99.997%; ASTM International passing criteria (3 Log10 or 99.9% reduction) (with Synederm light (385-515nm) for 60 seconds): satisfied the ASTM International passing criteria; ASTM International passing criteria (3 Log10 or 99.9% reduction) (with Synederm light (420-480nm) for 60 seconds): satisfied the ASTM International passing criteria
